{"source": "paper PMC9570042", "about": "“Impairment of Nucleolin Activity and Phosphorylation by a Trachylobane Diterpene from Psiadia punctulata in Cancer Cells” (International Journal of Molecular Sciences, 2022)", "key": {"[1]": {"tested_on": "HeLa cells", "test": "Protein neo-synthesis in HeLa cells", "type": "cell-based, human", "conditions": "20 μM"}, "[2]": {"biological_target": "T1, hNcl (Homo sapiens, UniProt P19338)", "T1 sequence (P19338 whole entry)": "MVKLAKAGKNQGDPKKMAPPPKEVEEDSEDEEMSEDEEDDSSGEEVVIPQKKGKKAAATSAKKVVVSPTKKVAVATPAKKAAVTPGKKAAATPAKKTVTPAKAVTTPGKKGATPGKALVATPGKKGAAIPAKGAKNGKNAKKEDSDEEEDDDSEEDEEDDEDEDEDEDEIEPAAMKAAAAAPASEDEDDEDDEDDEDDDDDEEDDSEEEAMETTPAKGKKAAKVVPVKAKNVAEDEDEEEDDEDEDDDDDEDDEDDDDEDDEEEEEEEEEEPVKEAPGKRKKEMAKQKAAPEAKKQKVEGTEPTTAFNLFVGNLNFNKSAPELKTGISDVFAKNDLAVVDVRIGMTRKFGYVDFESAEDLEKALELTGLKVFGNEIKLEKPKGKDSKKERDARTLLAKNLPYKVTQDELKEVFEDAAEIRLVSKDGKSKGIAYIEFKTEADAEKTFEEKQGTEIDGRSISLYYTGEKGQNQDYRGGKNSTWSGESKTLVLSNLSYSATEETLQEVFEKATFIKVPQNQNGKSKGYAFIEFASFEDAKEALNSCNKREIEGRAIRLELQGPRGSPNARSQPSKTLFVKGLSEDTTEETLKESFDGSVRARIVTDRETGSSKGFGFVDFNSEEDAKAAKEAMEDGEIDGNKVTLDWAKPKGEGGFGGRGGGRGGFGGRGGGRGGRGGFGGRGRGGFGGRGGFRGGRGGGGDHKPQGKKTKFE", "test": "CETSA apparent melting temperature of hNcl in HeLa cells", "type": "cell-based", "set-up": "endogenous in cells; host or cells: HeLa (cervical carcinoma)", "conditions": "20 μM, 2 h", "procedure": "The 12/hNcl interaction was also investigated using CETSA and its effect on the hNcl denaturation temperature (Tm) in the cells was analyzed. HeLa cells incubated with 12, oridonin or the vehicle were heated to different temperatures in the 38–61 °C range, and the amount of soluble hNcl remaining at each T value was measured. […] Further CETSAs were performed using various concentrations of the compound (1–20 μM) and the amount of hNcl resisting thermal denaturation at 55.5 °C was then reported in a graph as a function of the concentration of 12 used (Figure S3 and Figure 1E). This experiment allowed the calculation of an EC50 (the compound concentration producing half of the maximum effect on hNcl stabilization) of 5 μM.\nHeLa cells were seeded at 1.5 × 10^6 in 100 mm culture dishes. After 24 h, the cells were treated with compound 12 or oridonin (final concentration 20 μM) and incubated for 2 h in a CO2 incubator at 37 °C. The cells were then collected and centrifuged, and the cell pellets were washed with PBS and gently suspended in 1 mL PBS supplemented with protease inhibitors. […] The cells were then lysed and analyzed, as reported above."}, "[3]": {"tested_on": "HeLa cells", "test": "MTT-based proliferation assay, HeLa cells", "type": "cell-based", "conditions": "Homo sapiens, 48 h, read-out: IC50, inhibition of proliferation (MTT)", "procedure": "HeLa cells were seeded at 1 × 10^4 cells/well in 96-well plates. The day after the cells were incubated for 48 h with different concentrations of compounds (10–100) μM. The number of viable cells was quantified by MTT ([3-(4,5-dimethylthiazol-2-yl)-2,5-diphenyl tetrazolium bromide]) assay. Absorption at 550 nm for each well was assessed using a microplate reader (LabSystems, Vienna, VA, USA). Half maximal inhibitory concentration (IC50) values were calculated from cell viability dose–response curves and defined as the concentration resulting in 50% inhibition of cell survival as compared to controls."}, "[4]": {"tested_on": "HeLa cells", "test": "Cell cycle analysis by cytofluorimetry (PI staining), HeLa cells", "type": "cell-based, human", "conditions": "10 μM and 20 μM, 48 h", "procedure": "HeLa cells were seeded at 5.0 × 10^5 in 100 mm culture dishes. The day after, the cells were treated with DMSO and 12 at 10 μM and 20 μM for 48 h. The cell cycle was evaluated by propidium iodide (PI) staining of permeabilized cells (BD FACSCalibur flow cytometer, Becton Dickinson, San Jose, CA, USA). Data from 5000 events per sample were collected. The percentages of the elements in the hypodiploid region and in G0/G1, S, and G2/M phases of the cell cycle were calculated using the CellQuest and MODFIT software, respectively. The apoptosis analysis was carried out according to the protocol described in Annexin V, FITC Apoptosis Detection Kit (Dojindo EU GmbH, Munich, Germany). The samples were detected by Flow Cytometry (BD FACSCalibur flow cytometer, Becton Dickinson, San Jose, CA, USA) and analyzed by BD FACSuite software."}, "[5]": {"tested_on": "HaCat cell lines", "test": "Toxicity against HaCat cell line", "type": "cell-based"}, "[6]": {"biological_target": "T2, hNcl fragment consisting of RBD1 and 2 (RBD1,2) (Homo sapiens, UniProt P19338)", "T2 construct": "using an hNcl fragment consisting of RBD1 and 2 (RBD1,2)", "T2 sequence (P19338 300-466 limits assumed)": "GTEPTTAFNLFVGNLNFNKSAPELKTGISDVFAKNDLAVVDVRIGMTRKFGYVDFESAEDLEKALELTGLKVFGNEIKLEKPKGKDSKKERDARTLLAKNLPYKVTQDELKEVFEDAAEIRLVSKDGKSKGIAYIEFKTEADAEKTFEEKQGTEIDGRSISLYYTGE", "test": "Surface plasmon resonance with hNcl fragment RBD1,2", "type": "binding", "conditions": "SPR, immobilized RBD1,2, 25 °C", "procedure": "Moreover, to obtain information concerning the protein region involved in the interaction with 12, a new SPR analysis was carried out using an hNcl fragment consisting of RBD1 and 2 (RBD1,2).\n(§1) A Biacore 3000 optical biosensor was used to conduct Surface Plasmon Resonance (SPR) experiments. Proteins (hNcl and RBD 1,2) were dissolved at 100 µg/mL in 50 mM sodium acetate at a pH 4.5 and injected at a flow rate of 5 µL/min on a research-grade CM5 sensor chip (GE Healthcare, Chicago, IL, USA) to achieve immobilization. A standard amine-coupling protocol was used. Compound 12 was dissolved in 100% DMSO to obtain 4 mM solutions and diluted in […] (v/v) in PBS (10 mM NaH2PO4, 137 mM NaCl, 2.7 mM KCl pH 7.4). The final concentration of DMSO was 0.1% (v/v). This stock solution was used as a starting point to produce a four-concentration points series (0.025, 0.2, 1, and 4 µM). Measurements were performed at 25 °C, using a flow rate of 5 µL/min flow rate and adopting an association time of 60 s; dissociation of the complex was monitored for 300 s. The resulting sensorgrams were elaborated through the BIAevaluation software (GE Healthcare). Thermodynamic constants were calculated by adequately fitting the experimental curves with a single-site bimolecular interaction model."}, "[7]": {"tested_on": "hNcl", "test": "Western blot of hNcl and phosphorylated hNcl in HeLa cells", "type": "cell-based, human", "conditions": "cancer cells", "source_text": "Finally, we determined whether the treatment with 12 could affect hNcl expression, phosphorylation, and cellular localization."}, "[8]": {"biological_target": "T1, hNcl", "test": "Surface plasmon resonance with immobilized hNcl", "type": "binding", "conditions": "SPR, 25 °C", "procedure": "as §1"}}, "data": [{"smiles": "CC1(CO)CCCC2(C)C1C(O)CC13CC4C(CC12)C4(C(=O)O)C3", "note": "(stereo not drawn) [compound 12, 6,19-dihydroxy-ent-trachiloban-17-oic acid]", "values": [{"measurement": "protein neo-synthesis vs untreated cells", "setting": "[1]", "result": "no significant differences"}, {"measurement": "Tm of hNcl in cells incubated with compound", "setting": "[2]", "result": 55.5, "unit": "°C"}, {"measurement": "stabilization of hNcl (hNcl vs. T graphs) compared with oridonin", "setting": "[2]; 38–61 °C", "result": "stabilized hNcl more than oridonin did"}, {"measurement": "IC50", "setting": "[3]", "result": 25, "unit": "µM"}, {"measurement": "cell accumulation in the subG0/G1 phase", "setting": "[4]", "result": "dose-dependent manner"}, {"measurement": "toxicity: concentration up to which no toxicity was observed", "setting": "[5]", "result": "> 100", "unit": "µM"}, {"measurement": "KD", "setting": "[6]", "result": "0.074 ± 0.005", "unit": "µM"}, {"measurement": "koff", "setting": "[6]", "result": "0.0053 ± 0.009", "unit": "s⁻¹"}, {"measurement": "hNcl levels", "setting": "[7]; 20 μM, 4, 6, or 16 h", "result": "did not modify"}, {"measurement": "phosphorylation of hNcl", "setting": "[7]; 20 μM, 4 h treatment", "result": "inhibited"}, {"measurement": "koff", "setting": "[8]", "result": "0.0037 ± 0.005", "unit": "s⁻¹"}, {"measurement": "Kd", "setting": "[8]; read-out: dissociation constant (KD)", "result": "0.058 ± 0.003", "unit": "µM"}]}]}
